Data published in US10160724B2, “Tetrahydropyridine derivatives and their use as antibacterial agents” (Dong-A St Co., Ltd., priority 2016, dated 2018).
In brackets after ≈: the same amount, converted by molar mass.

How the values were obtained:
Assay in all cases: In vitro antibiotic activity, agar dilution method (Mueller-Hinton agar, NCCLS)
Type in all cases: cell-based
E. coli ATCC 25922 = details: Escherichia coli, ATCC25922; agar dilution, Mueller-Hinton agar; read-out: MIC for E. coli ATCC 25922
Experimental: (§1) To measure the antibiotic activity of the compounds prepared by Examples, antibiotic activity test in vitro was performed by agar dilution method using Mueller-Hinton agar according to the NCCLS (National Committee for Clinical Laboratory Standards. 2000. Methods for dilution antimicrobial susceptibility tests for bacteria that grow aerobiocally. Approved standard, NCCLS document M7-M5, 5th ed, vol 20, no 2. National Committee for Clinical Laboratory Standards, Wayne, Pa.). The test strain was Escherichia coli (ATCC 25922), Klebsiella pneumonia (ATCC 29665) and Pseudomonas aeriginosa (PAO1).

K. pneumoniae ATCC 29665 = details: Klebsiella pneumoniae, ATCC29665; agar dilution, Mueller-Hinton agar; read-out: MIC for K. pneumoniae ATCC 29665
Experimental: as §1

P. aeruginosa PAO1 = details: Pseudomonas aeruginosa, PAO1; agar dilution, Mueller-Hinton agar; read-out: MIC for P. aeruginosa PAO1
Experimental: as §1

SMILES | MIC (E. coli ATCC 25922) [mg/L] | MIC (K. pneumoniae ATCC 29665) [mg/L] | MIC (P. aeruginosa PAO1) [mg/L]
CC(CCN1CC=C(c2ccc(C#CC3CN(S(C)(=O)=O)C3)cc2)CC1)(C(=O)NO)S(C)(=O)=O (stereo not drawn) [Example 41, N-hydroxy-2-methyl-2-(methylsulfonyl)-4-(4-(4-((1-(methylsulfonyl)azetidin-3-yl)ethynyl)phenyl)-3,6-dihydropyridin-1(2H)-yl)butanamide] | 1 to 8 (≈ 1.96 to 15.7 µM) | 8 to 16 (≈ 15.7 to 31.4 µM) | 8 to 16 (≈ 15.7 to 31.4 µM)
CC(CCN1CC=C(c2ccc(C#CC#CCCCO)c(F)c2)CC1)(C(=O)NO)S(C)(=O)=O (stereo not drawn) [Example 42, 4-(4-(3-fluoro-4-(7-hydroxyhepta-1,3-diyn-1-yl)phenyl)-3,6-dihydropyridin-1(2H)-yl)-N-hydroxy-2-methyl-2-(methylsulfonyl)butanamide] | < 1 | 1 to 8 (≈ 2.1 to 16.8 µM) | 1 to 8 (≈ 2.1 to 16.8 µM)
CC(CCN1CC=C(c2ccc(C#CC#CCCO)c(F)c2)CC1)(C(=O)NO)S(C)(=O)=O (stereo not drawn) [Example 43, 4-(4-(3-fluoro-4-(6-hydroxyhexa-1,3-diyn-1-yl)phenyl)-3,6-dihydropyridin-1(2H)-yl)-N-hydroxy-2-methyl-2-(methylsulfonyl)butanamide] | < 1 | 1 to 8 (≈ 2.16 to 17.3 µM) | 1 to 8 (≈ 2.16 to 17.3 µM)
CC(CCN1CC=C(c2ccc(C#CC#CC3CC3)c(F)c2)CC1)(C(=O)NO)S(C)(=O)=O (stereo not drawn) [Example 44, 4-(4-(4-(cyclopropylbuta-1,3-diyn-1-yl)-3-fluorophenyl)-3,6-dihydropyridin-1(2H)-yl)-N-hydroxy-2-methyl-2-(methylsulfonyl)butanamide] | < 1 | 1 to 8 (≈ 2.18 to 17.4 µM) | 1 to 8 (≈ 2.18 to 17.4 µM)
CN(C)CC#CC#Cc1ccc(C2=CCN(CCC(C)(C(=O)NO)S(C)(=O)=O)CC2)cc1F (stereo not drawn) [Example 45, 4-(4-(4-(5-(dimethylamino)penta-1,3-diyn-1-yl)-3-fluorophenyl)-3,6-dihydropyridin-1(2H)-yl)-N-hydroxy-2-methyl-2-(methylsulfonyl)butanamide] | < 1 | 1 to 8 (≈ 2.1 to 16.8 µM) | 1 to 8 (≈ 2.1 to 16.8 µM)
CC(CCN1CC=C(c2ccc(C#CC#CCCCO)cc2)CC1)(C(=O)NO)S(C)(=O)=O (stereo not drawn) [Example 46, N-hydroxy-4-(4-(4-(7-hydroxyhepta-1,3-diyn-1-yl)phenyl)-3,6-dihydropyridin-1(2H)-yl)-2-methyl-2-(methylsulfonyl)butanamide] | < 1 | 1 to 8 (≈ 2.18 to 17.4 µM) | 1 to 8 (≈ 2.18 to 17.4 µM)
CC(CCN1CC=C(c2ccc(C#CC#CCCO)cc2)CC1)(C(=O)NO)S(C)(=O)=O (stereo not drawn) [Example 47, N-hydroxy-4-(4-(4-(6-hydroxyhexa-1,3-diyn-1-yl)phenyl)-3,6-dihydropyridin-1(2H)-yl)-2-methyl-2-(methylsulfonyl)butanamide] | < 1 | 1 to 8 (≈ 2.25 to 18 µM) | < 1
CC(CCN1CC=C(c2ccc(C#CC#CCO)cc2)CC1)(C(=O)NO)S(C)(=O)=O (stereo not drawn) [Example 48, N-hydroxy-4-(4-(4-(5-hydroxypenta-1,3-diyn-1-yl)phenyl)-3,6-dihydropyridin-1(2H)-yl)-2-methyl-2-(methylsulfonyl)butanamide] | < 1 | 1 to 8 (≈ 2.32 to 18.6 µM) | < 1
CN(C)CC#CC#Cc1ccc(C2=CCN(CCC(C)(C(=O)NO)S(C)(=O)=O)CC2)cc1 (stereo not drawn) [Example 49, 4-(4-(4-(5-(dimethylamino)penta-1,3-diyn-1-yl)phenyl)-3,6-dihydropyridin-1(2H)-yl)-N-hydroxy-2-methyl-2-(methylsulfonyl)butanamide] | < 1 | 1 to 8 (≈ 2.19 to 17.5 µM) | < 1
COCC#CC#Cc1ccc(C2=CCN(CCC(C)(C(=O)NO)S(C)(=O)=O)CC2)cc1 (stereo not drawn) [Example 50, N-hydroxy-4-(4-(4-(5-methoxypenta-1,3-diyn-1-yl)phenyl)-3,6-dihydropyridin-1(2H)-yl)-2-methyl-2-(methylsulfonyl)butanamide] | < 1 | 1 to 8 (≈ 2.25 to 18 µM) | < 1
CC(CCN1CC=C(c2ccc(C#CC#Cc3ccccc3)cc2)CC1)(C(=O)NO)S(C)(=O)=O (stereo not drawn) [Example 51, N-hydroxy-2-methyl-2-(methylsulfonyl)-4-(4-(4-(phenylbuta-1,3-diyn-1-yl)phenyl)-3,6-dihydropyridin-1(2H)-yl)butanamide] | > 16 | > 16 | > 16
CC(CCN1CC=C(C#Cc2ccncc2)CC1)(C(=O)NO)S(C)(=O)=O (stereo not drawn) [Example 52, N-hydroxy-2-methyl-2-(methylsulfonyl)-4-(4-(pyridin-4-ylethynyl)-3,6-dihydropyridin-1(2H)-yl)butanamide] | 8 to 16 (≈ 21.2 to 42.4 µM) | > 16 | > 16
CC(CCN1CC=C(C#Cc2ccc(Br)cc2)CC1)(C(=O)NO)S(C)(=O)=O (stereo not drawn) [Example 53, 4-(4-((4-bromophenyl)ethynyl)-3,6-dihydropyridin-1(2H)-yl)-N-hydroxy-2-methyl-2-(methylsulfonyl)butanamide] | 1 to 8 (≈ 2.2 to 17.6 µM) | 1 to 8 (≈ 2.2 to 17.6 µM) | > 16
CC(CCN1CC=C(C#CC#CCCCO)CC1)(C(=O)NO)S(C)(=O)=O (stereo not drawn) [Example 54, N-hydroxy-4-(4-(7-hydroxyhepta-1,3-diyn-1-yl)-3,6-dihydropyridin-1(2H)-yl)-2-methyl-2-(methylsulfonyl)butanamide] | 8 to 16 (≈ 20.9 to 41.8 µM) | > 16 | > 16
CC(CCN1CC=C(c2ccc(-c3ccncc3)cc2)CC1)(C(=O)NO)S(C)(=O)=O (stereo not drawn) [Example 55, N-hydroxy-2-methyl-2-(methylsulfonyl)-4-(4-(4-(pyridin-4-yl)phenyl)-3,6-dihydropyridin-1(2H)-yl)butanamide] | 1 to 8 (≈ 2.33 to 18.6 µM) | 1 to 8 (≈ 2.33 to 18.6 µM) | 1 to 8 (≈ 2.33 to 18.6 µM)
CC(CCN1CC=C(c2ccc(-c3ccccc3)cc2)CC1)(C(=O)NO)S(C)(=O)=O (stereo not drawn) [Example 56, 4-(4-([1,1′-biphenyl]-4-yl)-3,6-dihydropyridin-1(2H)-yl)-N-hydroxy-2-methyl-2-(methylsulfonyl)butanamide] | < 1 | < 1 | 8 to 16 (≈ 18.7 to 37.3 µM)
CC(CCN1CC=C(c2ccc(-c3ccc(Cl)cc3)cc2)CC1)(C(=O)NO)S(C)(=O)=O (stereo not drawn) [Example 57, 4-(4-(4′-chloro-[1,1′-biphenyl]-4-yl)-3,6-dihydropyridin-1(2H)-yl)-N-hydroxy-2-methyl-2-(methylsulfonyl)butanamide] | 1 to 8 (≈ 2.16 to 17.3 µM) | > 16 | > 16
CC(CCN1CC=C(c2ccc(-c3ccc(F)cc3)cc2)CC1)(C(=O)NO)S(C)(=O)=O (stereo not drawn) [Example 58, 4-(4-(4′-fluoro-[1,1′-biphenyl]-4-yl)-3,6-dihydropyridin-1(2H)-yl)-N-hydroxy-2-methyl-2-(methylsulfonyl)butanamide] | < 1 | 1 to 8 (≈ 2.24 to 17.9 µM) | > 16
CC(CCN1CC=C(c2ccc(-c3ccc(O)cc3)cc2)CC1)(C(=O)NO)S(C)(=O)=O (stereo not drawn) [Example 59, N-hydroxy-4-(4-(4′-hydroxy-[1,1′-biphenyl]-4-yl)-3,6-dihydropyridin-1(2H)-yl)-2-methyl-2-(methylsulfonyl)butanamide] | < 1 | 8 to 16 (≈ 18 to 36 µM) | 8 to 16 (≈ 18 to 36 µM)
COc1ccc(-c2ccc(C3=CCN(CCC(C)(C(=O)NO)S(C)(=O)=O)CC3)cc2)cc1F (stereo not drawn) [Example 60, 4-(4-(3′-fluoro-4′-methoxy-[1,1′-biphenyl]-4-yl)-3,6-dihydropyridin-1(2H)-yl)-N-hydroxy-2-methyl-2-(methylsulfonyl)butanamide] | < 1 | 8 to 16 (≈ 16.8 to 33.6 µM) | > 16
